{
  "source": "patent US8334382B2",
  "about": "“Substituted biaryl piperazinyl-pyridine analogues” (Neurogen Corporation, priority 2004, dated 2012)",
  "target": "T1, human capsaicin receptor (Homo sapiens, UniProt Q8NER1)",
  "T1 construct": "expressed in transfected cells; host or cells: HEK293, stably transfected with pBK-CMV construct",
  "T1 sequence (Q8NER1 whole entry)": "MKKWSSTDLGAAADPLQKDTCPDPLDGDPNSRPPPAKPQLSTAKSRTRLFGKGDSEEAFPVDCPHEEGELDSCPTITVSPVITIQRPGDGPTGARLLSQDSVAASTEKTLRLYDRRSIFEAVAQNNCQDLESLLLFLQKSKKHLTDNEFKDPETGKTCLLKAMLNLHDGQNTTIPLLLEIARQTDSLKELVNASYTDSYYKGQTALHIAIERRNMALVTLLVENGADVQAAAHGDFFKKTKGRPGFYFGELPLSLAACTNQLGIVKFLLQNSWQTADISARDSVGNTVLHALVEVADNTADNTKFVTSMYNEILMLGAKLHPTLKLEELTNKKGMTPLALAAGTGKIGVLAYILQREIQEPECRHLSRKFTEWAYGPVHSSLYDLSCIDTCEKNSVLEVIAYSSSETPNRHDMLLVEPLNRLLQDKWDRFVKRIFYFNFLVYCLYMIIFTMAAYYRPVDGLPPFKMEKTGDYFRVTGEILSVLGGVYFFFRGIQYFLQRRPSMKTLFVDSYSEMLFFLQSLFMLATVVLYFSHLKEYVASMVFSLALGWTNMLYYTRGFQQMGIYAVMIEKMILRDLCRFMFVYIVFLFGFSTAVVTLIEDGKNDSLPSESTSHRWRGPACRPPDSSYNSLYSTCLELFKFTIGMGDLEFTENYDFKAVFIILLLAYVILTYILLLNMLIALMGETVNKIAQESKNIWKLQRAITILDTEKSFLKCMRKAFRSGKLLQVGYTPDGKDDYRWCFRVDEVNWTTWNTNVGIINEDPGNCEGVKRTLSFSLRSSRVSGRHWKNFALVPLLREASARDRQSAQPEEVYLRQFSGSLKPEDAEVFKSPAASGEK",
  "assay": "Calcium mobilization assay, determination of antagonist activity",
  "type": "cell-based",
  "conditions": "capsaicin at EC50; cells expressing human capsaicin receptor; Example 6",
  "description": "A cDNA encoding full length human capsaicin receptor (SEQ ID NO:1, 2 or 3 of U.S. Pat. No. 6,482,611) is subcloned in the plasmid pBK-CMV (Stratagene, La Jolla, Calif.) for recombinant expression in mammalian cells.\nHuman embryonic kidney (HEK293) cells are transfected with the pBK-CMV expression construct encoding the full length human capsaicin receptor using standard methods. The transfected cells are selected for two weeks in media containing G418 (400 μg/ml) to obtain a pool of stably transfected cells. Independent clones are isolated from this pool by limiting dilution to obtain clonal stable cell lines for use in subsequent experiments.\nCells transfected with expression plasmids (as described in Example 4) and thereby expressing human capsaicin receptor are seeded and grown to 70-90% confluency in FALCON black-walled, clear-bottomed 96-well plates (#3904, BECTON-DICKINSON, Franklin Lakes, N.J.). The culture medium is emptied from the 96 well plates and FLUO-3 AM calcium sensitive dye (Molecular Probes, Eugene, Oreg.) is added to each well (dye solution: 1 mg FLUO-3 AM, 440 μL DMSO and 440 μl 20% pluronic acid in DMSO, diluted 1:250 in Krebs-Ringer HEPES (KRH) buffer (25 mM HEPES, 5 mM KCl, 0.96 mM NaH2PO4, 1 mM MgSO4, 2 mM CaCl2, 5 mM glucose, 1 mM probenecid, pH 7.4), 50 μl diluted solution per well). Plates are covered with aluminum foil and incubated at 37° C. for 1-2 h in an environment containing 5% CO2. After the incubation, the dye is emptied from the plates, and the cells are washed once with KRH buffer, and resuspended in KRH buffer.\nTo measure the ability of a test compound to agonize or antagonize a calcium mobilization response in cells expressing capsaicin receptors to capsaicin or other vanilloid agonist, the EC50 of the agonist capsaicin is first determined. An additional 20 μl of KRH buffer and 1 μl DMSO is added to each well of cells, prepared as described above. 100 μl capsaicin in KRH buffer is automatically transferred by the FLIPR instrument to each well. Capsaicin-induced calcium mobilization is monitored using either FLUOROSKAN ASCENT (Labsystems; Franklin, Mass.) or FLIPR (fluorometric imaging plate reader system; Molecular Devices, Sunnyvale, Calif.) instruments. Data obtained between 30 and 60 seconds after agonist application are used to generate an 8-point concentration response curve, with final capsaicin concentrations of 1 nM to 3 μM. KALEIDAGRAPH software (Synergy Software, Reading, Pa.) is used to fit the data to the equation: y=a*(1/(1+(b/x)^c)) to determine the 50% excitatory concentration (EC50) for the response. In this equation, y is the maximum fluorescence signal, x is the concentration of the agonist or antagonist (in this case, capsaicin), a is the Emax, b corresponds to the EC50 value and c is the Hill coefficient. Determination of Agonist Activity\nTest compounds are dissolved in DMSO, diluted in 20 μl KRH buffer so that the final concentration of test compounds in the assay well is between 1 μM and 5 μM, and added to cells prepared as described above. The 96 well plates containing prepared cells and test compounds are incubated in the dark, at room temperature for 0.5 to 6 h. It is important that the incubation not continue beyond 6 h. Just prior to determining the fluorescence response, 100 μl capsaicin in KRH buffer at twice the EC50 concentration determined as described above is automatically added by the FLIPR instrument to each well of the 96 well plate for a final sample volume of 200 μl and a final capsaicin concentration equal to the EC50. The final concentration of test compounds in the assay wells is between 1 μM and 5 μM. […] The concentration of antagonist required to provide a 50% decrease, relative to the response observed in the presence of capsaicin and without antagonist, is the IC50 for the antagonist, and is preferably below 1 micromolar, 100 nanomolar, 10 nanomolar or 1 nanomolar.",
  "data": [
    {"smiles": "Cc1cc(CC(=O)OC(C)(C)C)cnc1N1CCN(c2cc(-c3ccc(F)cc3)nc(N3CCC[C@H]3C)n2)[C@H](C)C1", "note": "(relative stereo) [Example 190, tert-butyl rel-{6-[(3R)-4-{6-(4-fluorophenyl)-2-[(2R)-2-methylpyrrolidin-1-yl]pyrimidin-4-yl}-3-methylpiperazin-1-yl]-5-methylpyridin-3-yl}acetate]", "values": [
      {"measurement": "IC50", "result": "≤ 1000", "unit": "nM"}
    ]},
    {"smiles": "C[C@@H]1CN(c2ncc(/C=C/CO)cc2Cl)CCN1c1cc(-c2ccc(F)c(Cl)c2)nc(N2CCC[C@H]2C)n1", "note": "(relative stereo) [Example 191, rel-(2E)-3-{5-chloro-6-[(3R)-4-{6-(3-chloro-4-fluorophenyl)-2-[(2R)-2-methylpyrrolidin-1-yl]pyrimidin-4-yl}-3-methylpiperazin-1-yl]pyridin-3-yl}prop-2-en-1-ol]", "values": [
      {"measurement": "IC50", "result": "≤ 1000", "unit": "nM"}
    ]},
    {"smiles": "Cc1cc(OCCO)cnc1N1CCN(c2cc(-c3ccc(F)cc3)nc(N3CCC[C@H]3C)n2)[C@H](C)C1", "note": "(relative stereo) [Example 192, rel-2-({6-[(3R)-4-{6-(4-fluorophenyl)-2-[(2R)-2-methylpyrrolidin-1-yl]pyrimidin-4-yl}-3-methylpiperazin-1-yl]-5-methylpyridin-3-yl}oxy)ethanol]", "values": [
      {"measurement": "IC50", "result": "≤ 1000", "unit": "nM"}
    ]},
    {"smiles": "C[C@@H]1CN(c2ncc(CCCO)cc2Cl)CCN1c1cc(-c2ccc(F)c(Cl)c2)nc(N2CCC[C@H]2C)n1", "note": "(relative stereo) [Example 193, rel-3-{5-chloro-6-[(3R)-4-{6-(3-chloro-4-fluorophenyl)-2-[(2R)-2-methylpyrrolidin-1-yl]pyrimidin-4-yl}-3-methylpiperazin-1-yl]pyridin-3-yl}propan-1-ol]", "values": [
      {"measurement": "IC50", "result": "≤ 1000", "unit": "nM"}
    ]},
    {"smiles": "CCOC(=O)c1cccnc1N1CCN(c2cc(-c3ccc(F)c(Cl)c3)nc(N3CCOCC3)n2)CC1", "note": "[Example 1, 2-{4-[6-(3-Chloro-4-fluoro-phenyl)-2-morpholin-4-yl-pyrimidin-4-yl]-piperazin-1-yl}-nicotinic acid ethyl ester]", "values": [
      {"measurement": "IC50", "result": "≤ 1000", "unit": "nM"}
    ]},
    {"smiles": "NC(=O)c1cccnc1N1CCN(c2cc(-c3ccc(F)c(Cl)c3)nc(N3CCOCC3)n2)CC1", "note": "[Example 2, 2-{4-[6-(3-Chloro-4-fluoro-phenyl)-2-morpholin-4-yl-pyrimidin-4-yl]-piperazin-l-yl}-nicotinamide]", "values": [
      {"measurement": "IC50", "result": "≤ 1000", "unit": "nM"}
    ]},
    {"smiles": "O=C(O)c1cccnc1N1CCN(c2cc(-c3ccc(F)c(Cl)c3)nc(N3CCOCC3)n2)CC1", "note": "[Example 3, 2-{4-[6-(3-Chloro-4-fluoro-phenyl)-2-morpholin-4-yl-pyrimidin-4-yl] - piperazin-1-yl}-nicotinic acid]", "values": [
      {"measurement": "IC50", "result": "≤ 1000", "unit": "nM"}
    ]},
    {"smiles": "O=[N+]([O-])c1cccnc1N1CCN(c2cc(-c3ccc(F)c(Cl)c3)nc(N3CCOCC3)n2)CC1", "note": "[Example 4, 4-{4-(3-Chloro-4-fluoro-phenyl)-6-[4-(3-nitro-pyridin-2-yl)-piperazin-1-yl]-pyrimidin-2-yl}-morpholine]", "values": [
      {"measurement": "IC50", "result": "≤ 1000", "unit": "nM"}
    ]},
    {"smiles": "Cc1cc([N+](=O)[O-])cnc1N1CCN(c2cc(-c3ccc(F)c(Cl)c3)nc(N3CCCC3C)n2)CC1", "note": "(stereo not drawn) [Example 5, 4-(3-Chloro-4-fluoro-phenyl)-6-[4-(3-methyl-5-nitro-pyridin-2-yl)-piperazin-1-yl]-2-(2-methyl-pyrrolidin-1-yl)-pyrimidine]", "values": [
      {"measurement": "IC50", "result": "≤ 1000", "unit": "nM"}
    ]},
    {"smiles": "Cc1cc(OCCN(C)C)cnc1N1CCN(c2cc(-c3ccc(F)c(Cl)c3)nc(N3CCCC3C)n2)CC1", "note": "(stereo not drawn) [Example 6, [2-(6-{4-[6-(3-Chloro-4-fluoro-phenyl)-2-(2-methyl-pyrrolidin-1-yl)-pyrimidin-4-yl]-piperazin-1-yl}-5-methyl-pyridin-3-yloxy)-ethyl]-dimethyl-amine]", "values": [
      {"measurement": "IC50", "result": "≤ 1000", "unit": "nM"}
    ]},
    {"smiles": "CC1CCCN1c1nc(-c2ccc(F)c(Cl)c2)cc(N2CCN(c3nccc(C(=O)O)c3Cl)CC2)n1", "note": "(stereo not drawn) [Example 7, 3-Chloro-2-{4-[6-(3-chloro-4-fluoro-phenyl)-2-(2-methyl-pyrrolidin-1-yl)-pyrimidin-4-yl]-piperazin-1-yl}-isonicotinic acid]", "values": [
      {"measurement": "IC50", "result": "≤ 1000", "unit": "nM"}
    ]},
    {"smiles": "COC(=O)c1cnc(N2CCN(c3cc(-c4ccc(F)c(Cl)c4)nc(N4CCCC4C)n3)[C@H](C)C2)c(Cl)c1", "note": "(stereo partly drawn) [Example 8, 5-Chloro-6-{4-[6-(3-chloro-4-fluoro-phenyl)-2-(2-methyl-pyrrolidin-1-yl)-pyrimidin-4-yl]-3-(R)-methyl-piperazin-1-yl}-nicotinic acid methyl ester]", "values": [
      {"measurement": "IC50", "result": "≤ 1000", "unit": "nM"}
    ]},
    {"smiles": "CC1CCCN1c1nc(-c2ccc(F)c(Cl)c2)cc(N2CCN(c3ncc(C(=O)O)cc3Cl)C[C@H]2C)n1", "note": "(stereo partly drawn) [Example 9, 5-Chloro-6-{4-[6-(3-chloro-4-fluoro-phenyl)-2-(2-methyl-pyrrolidin-1-yl)-pyrimidin-4-yl]-3-(R)-methyl-piperazin-l-yl}-nicotinic acid]", "values": [
      {"measurement": "IC50", "result": "≤ 1000", "unit": "nM"}
    ]},
    {"smiles": "CC1CCCN1c1nc(-c2ccc(F)c(Cl)c2)cc(N2CCN(c3ncc(CO)cc3Cl)CC2)n1", "note": "(stereo not drawn) [Example 10, (5-Chloro-6-{4-[6-(3-chloro-4-fluoro-phenyl)-2-(2-methyl-pyrrolidin-1-yl)-pyrimidin-4-yl]-piperazin-1-yl}-pyridin-3-yl)-methanol]", "values": [
      {"measurement": "IC50", "result": "≤ 1000", "unit": "nM"}
    ]},
    {"smiles": "CNCc1cnc(N2CCN(c3cc(-c4ccc(F)c(Cl)c4)nc(N4CCCC4C)n3)CC2)c(Cl)c1", "note": "(stereo not drawn) [Example 11, (5-Chloro-6-{4-[6-(3-chloro-4-fluoro-phenyl)-2-(2-methyl-pyrrolidin-1-yl)-pyrimidin-4-yl]-piperazin-1-yl}-pyridin-3-ylmethyl)-methyl-amine]", "values": [
      {"measurement": "IC50", "result": "≤ 1000", "unit": "nM"}
    ]},
    {"smiles": "CC1CCCN1c1nc(-c2ccc(F)c(Cl)c2)cc(N2CCN(c3ncc(CN)cc3Cl)CC2)n1", "note": "(stereo not drawn) [Example 12, C-(5-Chloro-6-{4-[6-(3-chloro-4-fluoro-phenyl)-2-(2-methyl-pyrrolidin-l-yl)-pyrimidin-4-yl]-piperazin-1-yl}-pyridin-3-yl)-methylamine]", "values": [
      {"measurement": "IC50", "result": "≤ 1000", "unit": "nM"}
    ]},
    {"smiles": "CC1CCCN1c1nc(-c2ccc(F)c(Cl)c2)cc(N2CCN(c3ncc(CO)cc3Cl)C[C@H]2C)n1", "note": "(stereo partly drawn) [Example 13, (5-Chloro-6-{4-[6-(3-chloro-4-fluoro-phenyl)-2-(2-methyl-pyrrolidin-1-yl)-pyrimidin-4-yl]-3-(R)-methyl-piperazin-1-yl}-pyridin-3-yl)-methanol]", "values": [
      {"measurement": "IC50", "result": "≤ 1000", "unit": "nM"}
    ]},
    {"smiles": "CCCN1CCN(c2nc(-c3ccc(F)c(Cl)c3)cc(N3CCN(c4ncc([N+](=O)[O-])cc4C)CC3)n2)CC1", "note": "[Example 14, 4-(3-Chloro-4-fluoro-phenyl)-6-[4-(3-methyl-5-nitro-pyridin-2-yl)-piperazin-l-yl]-2-(4-propyl-piperazin-1-yl)-pyrimidine]", "values": [
      {"measurement": "IC50", "result": "≤ 1000", "unit": "nM"}
    ]},
    {"smiles": "CC1CCCN1c1nc(-c2ccc(F)c(Cl)c2)cc(N2CCN(c3ncc(C(N)=O)cc3Cl)CC2)n1", "note": "(stereo not drawn) [Example 15, 5-Chloro-6-{4-[6-(3-chloro-4-fluoro-phenyl)-2-(2-methyl-pyrrolidin-1-yl)-pyrimidin-4-yl]-piperazin-l-yl}-nicotinamide]", "values": [
      {"measurement": "IC50", "result": "≤ 1000", "unit": "nM"}
    ]},
    {"smiles": "CCCN1CCN(c2nc(-c3ccc(F)c(Cl)c3)cc(N3CCN(c4ncc(CO)cc4Cl)CC3)n2)CC1", "note": "[Example 16, (5-Chloro-6-{4-[6-(3-chloro-4-fluoro-phenyl)-2-(4-propyl-piperazin-1-yl)-pyrimidin-4-yl]-piperazin-1-yl}-pyridin-3-yl)-methanol]", "values": [
      {"measurement": "IC50", "result": "≤ 1000", "unit": "nM"}
    ]},
    {"smiles": "CCCN1CCN(c2nc(-c3ccc(F)c(Cl)c3)cc(N3CCN(c4ncc(C(=O)O)cc4Cl)CC3)n2)CC1", "note": "[Example 17, 5-Chloro-6-{4-[6-(3-chloro-4-fluoro-phenyl)-2-(4-propyl-piperazin-1-yl)-pyrimidin-4-yl]-piperazin-1-yl}-nicotinic acid]", "values": [
      {"measurement": "IC50", "result": "≤ 1000", "unit": "nM"}
    ]}
  ]
}
